The values below are quoted from earlier work in patent US20160280572A1, “POLYMERS FOR FLOCCULATION, DEWATERING AND CONSOLIDATION OF OIL SANDS FLUID FINE TAILINGS, MINE TAILINGS AND SOLID PARTICULATE SUSPENSIONS” (THE GOVERNORS OF THE UNIVERSITY OF ALBERTA, priority 2015, published 2016).

One may read the Solubility as the concentration that dissolves in the medium under given conditions.

Values after ≈ are worked out from the molar mass of the structure shown.

The conditions of one series: in water, 20 Celsius.
For `C=CC#N` [Acrylonitrile], the Solubility was 70 mg/mL (≈ 1320 mM). `C=C(C)C(N)=O` [Methacrylamide]: the Solubility is 202 mg/mL (≈ 2370 mM). Regarding `C=CC(=O)OC` [methyl acrylate], the Solubility was 60 mg/mL (≈ 697 mM). Regarding `C=C(C)C(=O)OC` [methyl methacrylate], the Solubility is 16 mg/mL (≈ 160 mM). Consider `C=Cc1ccccc1` [styrene], for which the Solubility is 0.3 mg/mL (≈ 2.88 mM). Regarding `C=COC(C)=O` [vinyl acetate], the Solubility was 25 mg/mL.

Still in this series, the particulars now being: in water, temperature Not Listed.
In the case of `C=C(C)C(=O)OCCCC` [butyl methacrylate], the Solubility is 6 mg/mL (≈ 42.2 mM).
